Measured values published in patent US11896589B2, “Diazinyl amino acridines and medical uses thereof” (MyCural Therapeutics AB, priority 2018, dated 2024).

Columns and labels:
[1] = tested on: MYC null (H015.19) Rat1 fibroblast cells; test: Assay 5B Tgr cell growth (WST-1), MYC null; assay type: cell-based, rat; conditions: 48 hours
Method: (§1) FIG. 6: A-B) Neuroblastoma cell lines with (SK-N-DZ, Kelly and IMR-32) or without (SK-N-F1, SK-N-RA and SK-N-AS) MYCN-amplification were exposed to different concentrations of Example 1, Example 2 and control compound, respectively, for 48 hours. Cell growth and viability was estimated by measuring metabolic activity. C) Growth of TGR-1 (wt), HO15.19 (MYC knockout) and HOmyc3 (MYC reconstituted HO15.19) Rat1 fibroblasts, as measured by the WST-1 assay after treatment with Example 1. Data are shown as mean±standard deviation of 3-5 biological experiments, each with 3 technical repeats.
(§2) Assay 5B: Tgr Cell Growth
(§3) Tgr cells were treated at 37° C. and 5% CO2 at 48 hours with Example and Example 2. H015.19 is a MYC null rat cell line derived from Tgr1 (parental cells), while H0Myc3 cells were generated from the MYC null cells by reconstitution of a MYC gene(Mateyak, M. K., Obaya, A. J., Adachi, S. & Sedivy, J. M. Phenotypes of c-Myc-deficient rat fibroblasts isolated by targeted homologous recombination. Cell Growth Differ 8, 1039-1048 (1997)).

[2] = tested on: non-MYCN-amplified neuroblastoma cells (SK-N-F1, SK-N-RA, SK-N-AS); test: Assay 5A neuroblastoma cell growth (WST-1), non-MYCN-amplified; assay type: cell-based
Method: as §1
Assay 5A: Neuroblastoma Cell Growth
Neuroblastoma cell lines with (SK-N-DZ, Kelly and IMR-32) or without (SK-N-F1, SK-N-RA and SK-N-AS) MYCN-amplification were exposed to different concentrations of example compounds for 48 hours. Cell growth and viability was estimated by measuring metabolic activity by incubating cells in triplicates with WST-1 (Roche) in medium at 37° C. and 5% CO2 for 2 hours after which absorbance was measured with an Omega Fluostar (BMG Labtech) in a 96 well plate format.

[3] = target: T1, MYC:MAX heterodimer (MYCbHLHZip over immobilized MAXbHLHZip) (Homo sapiens, UniProt P01106); test: Assay 1B MYC:MAX SPR heterodimer formation assay; assay type: binding; conditions: 100 nM MYCbHLHZip pre-mixed with compound, 25° C.
T1 construct: MYC:MAX heterodimer formation assay based on recombinant proteins
T1 sequence (P01106 368-449 limits assumed, one chain of several): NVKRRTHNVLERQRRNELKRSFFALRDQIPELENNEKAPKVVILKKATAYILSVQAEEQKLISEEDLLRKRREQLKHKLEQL
Method: FIG. 1: A) Microscale thermophoresis (MST) of fluorescently labeled MAX in a MYC:MAX heterodimer formation assay based on recombinant proteins. MST of labeled MAXbHLHZip after titration of Example 1 pre-incubated with 1 μM MYCbHLHZip, or with 1 μM MAXbHLHZip. Fluorescence intensity of labeled MAXbHLHZip relative DMSO was plotted against Example 1 concentration. B) Surface plasmon resonance (SPR) of MYC:MAX heterodimer formation assay. MAXbHLHZip was immobilized by an amino coupling procedure to a CM5 sensor chip. MYCbHLHZip pre-incubated with or without compound (as indicated) was injected over MAX for 180 seconds, allowed to dissociate for 240 seconds and regenerated. Reference surface (without MAXbHLHZip) subtracted sensorgrams are shown from one representative experiment. C) MYC binding response units (RU) plotted against Example 1 concentration from which an IC50 of Example 1 inhibition of MYC:MAX heterodimer formation is determined, summary of four experiments.
Assay 1B. Surface Plasmon Resonance (SPR)
The SPR method is a highly sensitive assay to determine the affinity between protein and ligand and to measure the kinetics of the interaction (see Handbook of Surface Plasmon Resonance 2nd edition, Richard B M Schasfoort (Editor), RSC 2017, ca. 500 p., hardcover, ISBN 978-1-78262-730-2). […]

[4] = tested on: Tgr and H0Myc3 Rat1 fibroblast cells; test: Assay 5B Tgr cell growth (WST-1), MYC expressing; assay type: cell-based, rat; conditions: 48 hours
Method: as §1, §2, §3

[5] = target: T2, MYC:MAX (MYC-GLuc-C + MAX-GLuc-N) in HEK293 cells (Homo sapiens, UniProt P01106); test: Assay 3C GLuc complementation assay; assay type: cell-based
T2 construct: expressed in transfected cells; host or cells: HEK293 (also COS-7)
T2 sequence (P01106 whole entry): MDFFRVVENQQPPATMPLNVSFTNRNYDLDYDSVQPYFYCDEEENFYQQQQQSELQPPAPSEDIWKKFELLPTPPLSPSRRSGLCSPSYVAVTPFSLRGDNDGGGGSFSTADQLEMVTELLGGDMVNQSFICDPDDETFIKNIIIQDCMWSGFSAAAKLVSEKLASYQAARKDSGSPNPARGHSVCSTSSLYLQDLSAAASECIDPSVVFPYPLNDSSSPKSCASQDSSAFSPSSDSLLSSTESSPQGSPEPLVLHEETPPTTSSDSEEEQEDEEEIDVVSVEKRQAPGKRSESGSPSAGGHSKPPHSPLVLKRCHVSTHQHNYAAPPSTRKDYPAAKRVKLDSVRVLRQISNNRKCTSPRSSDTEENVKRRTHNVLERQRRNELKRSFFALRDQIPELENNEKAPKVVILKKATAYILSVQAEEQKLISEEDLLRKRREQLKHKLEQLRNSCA
Method: FIG. 4: A) Endogenous MYC:MAX (upper panel) and FRA1:JUN (lower panel) interactions as visualized as fluorescent red dots by isPLA. Nuclei were counterstained with DAPI (blue). Cells were treated with 10 μM of indicated compounds for 16 hours and subjected to isPLA using pairs of MYC and MAX and of FRA1 and JUN antibodies, respectively. As negative control, primary antibody pairs but only one oligo-conjugated secondary antibody was used. B) Quantification of MYC:MAX and C) FRA1:JUN isPLA, representing an average number of nuclear dots per cell from three microscopic fields normalized to corresponding values for DMSO-treated cells. […] 1st-4th lanes from top; coimmunoprecipitated MAX, immunoprecipitated MYC, total levels of MAX and ACTIN, respectively, as determined by western blot analysis. E) MYC:MAX GLuc assay in cells. […] 24 hours later cells were treated with […] of Example 1, Example 2 and control compound for 16 hours and thereafter analyzed in a dual luciferase assay. The ratio of Gaussia/Firefly luciferase luminescence were calculated and normalized to DMSO-treated cells.
The protein fragment complementation assay using the Gaussia luciferase (GLuc) has been described (Remy, I. & Michnick, S. W. A highly sensitive protein-protein interaction assay based on Gaussia luciferase. Nat Methods 3, 977-979, doi:10.1038/nmeth979 (2006)). […] 24 hours later cells were treated with compound or DMSO. After another 17 hours the cells were harvested and lyzed in passive lysis buffer (Promega) supplemented with complete protease inhibitor (Roche). After 60 min incubation at room temperature 20 μM D-luciferin was added (substrate of Firefly luciferase) and luminescence was measured in a Lumat LB9501 (Berthold) or OmegaFluostar (BMG Labtech) luminometer. Directly after, the Gaussia luciferase substrate Coelenterazine (Promega) was added to a final concentration of 20 μM and the luciferase activity was measured. The ratio between Gaussia and Firefly luciferase values were calculated and normalized to DMSO-treated control cells.

[6] = Rattus norvegicus, Fibroblast, first run

GI50 ([2]; Homo sapiens, SK-N-AS, 48 h, first run): > 20 µM
GI50 ([2]; Homo sapiens, SK-N-AS, second run): > 25 µM
GI50 ([2]; first run, 48 hours, sulphate hydrate): > 25 µM
IC50 [3]: 3.8 µM
inhibition at 10 µM ([5]; HEK293): 50%
IC50 ([5]; exogenous MYC:MAX): 10 µM
SMILES: CCOc1ccc2nc3cc(/N=N/c4ccc(N)nc4N)ccc3c(N)c2c1 [Example 1, 3-((9-amino-7-ethoxyacridin-3-yl)diazenyl)pyridine-2,6-diamine sulphate hydrate]
growth of the MYC null cells [1]: did not significantly affect
GI50 [1, 6]: > 10 µM
growth of wt and reconstituted cells [4]: strongly inhibited
GI50 [4, 6]: 4 µM
